Measurements reported in patent US20250207103A1, “CYTOCOMPATIBLE HYDROGELS AND METHODS OF MAKING AND USING THE SAME” (The Trustees of Indiana University, priority 2022, published 2025).

Experiments:
PCCs/CAFs = assay: effect of blebbistatin and Y-27632 on PCCs/CAFs encapsulated in viscoelastic hydrogels; assay type: cell-based, human; conditions: blebbistatin: 40 μM, Y-27632: 10 μM, Day 15
Excerpt: To facilitate imaging, pancreatic cancer cells COLO-357 were stably transduced with mKate2, a red fluorescent protein (RFP), using INCUCYTE® Cytolight Lentivirus reagent, followed by puromycin selection. green fluorescent protein (GFP)-labelled human pancreatic cancer associated fibroblasts (1303-GFP-49-hT, or CAF) and RFP-labelled COLO-357 (PCC) were maintained in high glucose Dulbecco's modified eagle medium (DMEM, Gibco) containing 10% Fetal bovine serum (FBS, Corning) and 1% antibiotic-antimycotic (Gibco) at 37° C. with 5% CO2. Cells were trypsinized by 0.1% trypsin-ethylenediaminetetraacetic acid (trypsin-EDTA) (Gibco) for cell encapsulation. The cell density of CAF and PCC was kept at 1.6 million/mL (M/mL) and 400 thousand/mL (k/mL), respectively, in both single-encapsulated and co-encapsulated precursor solutions. The hydrogel precursor solution was similar to the aforementioned formulations, except that 3 wt % of GelSH was included to facilitate cell proliferation. Twenty-five μL precursor solution was cured under UV light (λ=365 nm, 5 mW/cm^2) in an opened 1 mL syringe for 2 minutes. […]
The cell viability of CAF in hydrogels was evaluated by staining with ethidium homodimer 3. The morphology of CAF in hydrogels was analyzed using F-actin (rhodamine phalloidin 100 nM, Cytoskeleton) and 4′,6-diamidino-2-phenylindole (DAPI) (1:1000, Anaspec) stained images. […]

CAFs = assay: effect of blebbistatin and Y-27632 on spreading of CAFs in viscoelastic hydrogels; assay type: cell-based, human; conditions: Y-27632: 10 μM; for F-actin polymerization in CAFs: blebbistatin: 40 μM, Day 15
Excerpt: To facilitate imaging, pancreatic cancer cells COLO-357 were stably transduced with mKate2, a red fluorescent protein (RFP), using INCUCYTE® Cytolight Lentivirus reagent, followed by puromycin selection. green fluorescent protein (GFP)-labelled human pancreatic cancer associated fibroblasts (1303-GFP-49-hT, or CAF) and RFP-labelled COLO-357 (PCC) were maintained in high glucose Dulbecco's modified eagle medium (DMEM, Gibco) containing 10% Fetal bovine serum (FBS, Corning) and 1% antibiotic-antimycotic (Gibco) at 37° C. with 5% CO2. Cells were trypsinized by 0.1% trypsin-ethylenediaminetetraacetic acid (trypsin-EDTA) (Gibco) for cell encapsulation. The cell density of CAF and PCC was kept at 1.6 million/mL (M/mL) and 400 thousand/mL (k/mL), respectively, in both single-encapsulated and co-encapsulated precursor solutions. The hydrogel precursor solution was similar to the aforementioned formulations, except that 3 wt % of GelSH was included to facilitate cell proliferation. Twenty-five μL precursor solution was cured under UV light (λ=365 nm, 5 mW/cm^2) in an opened 1 mL syringe for 2 minutes. The cell-laden hydrogels were then cultured in regular cell culture media. For hydrogels treated with myosin inhibitor blebbistatin (40 μM, Peprotech) and ROCK inhibitor Y-27632 (10 μM, AdipoGen), the treated culture media was replaced daily to ensure the efficacy of inhibitors.
The cell viability of CAF in hydrogels was evaluated by staining with ethidium homodimer 3. The morphology of CAF in hydrogels was analyzed using F-actin (rhodamine phalloidin 100 nM, Cytoskeleton) and 4′,6-diamidino-2-phenylindole (DAPI) (1:1000, Anaspec) stained images. In the co-encapsulated hydrogels, cells were stained using F-actin (Actin stain 670 phalloidin 200 nM, Cytoskeleton) and DAPI (1:1000). The confocal images (Olympus Fluoview FV100 laser scanning microscope) were z-stacked from 5 μm slices over 100 μm in total.

Compound | invasive phenotype of PCC cells in co-culture (PCCs/CAFs) | cell morphology of CAFs (CAFs) | F-actin polymerization in CAFs (CAFs)
C[C@@H](N)[C@H]1CC[C@H](C(=O)Nc2ccncc2)CC1 [Y-27632] | neither the addition of blebbistatin nor Y-27632 altered invasive phenotype | more obvious dendritic extensions of cells | disrupted F-actin polymerization
Cc1ccc2c(c1)C(=O)C1(O)CCN(c3ccccc3)C1=N2 (centres unmarked) [blebbistatin] | neither the addition of blebbistatin nor Y-27632 altered invasive phenotype | – | disrupted F-actin polymerization
